Columns and labels:
Format in all cases: cell-based, human
[1] = test system: OBR; assay: Cell viability (WST-1) with 5-aza-dC at increasing doses; conditions: 96 h
Excerpt: (§1) To further determine the impact of global demethylation on the expression of hCGβ type II and pro-EPIL, we used 5-aza-2′ deoxycytidine (5-aza-dC), a strong inducer of DNA de-methylation and measured the levels of hCGβ type II and pro-EPIL in the supernatants of 10 cancer cell lines of various histological origin, treated at two different doses of 5-aza-dC. On the curve of viability of each cell line treated with 5-aza-dC at increasing doses, the two selected doses that have been selected for studying the effect of global hypomethylation by 5-aza-dC on the production of hCGβ type II and pro-EPIL were the doses corresponding to the 5-aza-dC concentrations at the inflexion point and at the 50% inhibition of cell viability (Inhibition growth Concentration 50% or IC 50), respectively (FIG. 3 and Table 2).
(§2) Briefly, 10,000 cells were plated in 96-well plates in 100 μl medium. After one day, dilution range of 5-aza-dC from 1,000 μM to 0.06 μM were added. After 96 h incubation time, 10 μl of WST-1 were added and optical density (O.D) were measured at 450 nm (FIG. 3 and Table 2).

[2] = test system: A549; assay: as above
Excerpt: as §1, §2

[3] = test system: LCF09; assay: as above; conditions: 96 h
Excerpt: as §1, §2

[4] = test system: CLRB018P; assay: as above; conditions: 96 h
Excerpt: as §1, §2

[5] = test system: BC173; assay: as above; conditions: 96 h
Excerpt: as §1, §2

[6] = test system: HT1376; assay: as above
Excerpt: as §1, §2

[7] = test system: JEG; assay: as above; conditions: 96 h
Excerpt: as §1, §2

[8] = test system: JAR; assay: as above; conditions: 96 h
Excerpt: as §1, §2

[9] = test system: TC320X6; assay: as above; conditions: 96 h
Excerpt: as §1, §2

[10] = test system: SHP77; assay: as above
Excerpt: as §1, §2

[11] = test system: pro-EPIL; assay: Pro-EPIL in supernatants of cancer cell lines after induction of DNA demethylation (ELISA); conditions: 10 cancer cell lines, 72 h at dose A or dose B, supernatant, vs cells not exposed (FIG. 4A)
Excerpt: as §1
(§3) Experiments were performed as previously described. Briefly, in 75 cm^2 size cell culture flaks, cell lines were grew up to more than 50% confluence before treating them for 72 h with 5-aza-dC at either the doses A corresponding at the Inflection Points, or the doses B corresponding to IC50. […] After trypsinisation, cells were counted in malassez chamber using trypan blue. […] Then, the pro-EPIL and hCG B type II concentrations were determined by an ELISA immunoassay and an automated KRYPTOR immunoassay, respectively (Table 2, FIG. 4A, FIG. 4B).

[12] = test system: hCGβ type II; assay: hCGβ type II in supernatants of cancer cell lines after induction of DNA demethylation (KRYPTOR immunoassay); conditions: 10 cancer cell lines, 72 h at dose A or dose B, supernatant, vs cells not exposed (FIG. 4B)
Excerpt: as §1, §3

[13] = Homo sapiens, read-out: Dose B (5-aza-dC concentration at the 50% inhibition of cell viability, IC 50)

Structure (SMILES): Nc1ncn([C@H]2C[C@H](O)[C@@H](CO)O2)c(=O)n1 [5-aza-dC, 5-aza-2′ deoxycytidine]
- IC50 [1, 13]: 20 µM
- Dose A (5-aza-dC concentration at the inflexion point of the viability curve) ([1]; OBR, bladder, WST-1): 6.5 µM
- Dose A (5-aza-dC concentration at the inflexion point of the viability curve) ([2]; A549, lung, 96 h, WST-1): 12.5 µM
- IC50 ([2]; Homo sapiens, A549, 96 h, read-out: Dose B (5-aza-dC concentration at the 50% inhibition of cell viability, IC 50)): 50 µM
- IC50 [3, 13]: 25 µM
- Dose A (5-aza-dC concentration at the inflexion point of the viability curve) ([3]; LCF09, lung, WST-1): 5 µM
- Dose A (5-aza-dC concentration at the inflexion point of the viability curve) ([4]; CLRB018P, colon, WST-1): 15.6 µM
- IC50 [4, 13]: 186 µM
- Dose A (5-aza-dC concentration at the inflexion point of the viability curve) ([5]; BC173, breast, WST-1): 1.95 µM
- IC50 [5, 13]: 117 µM
- Dose A (5-aza-dC concentration at the inflexion point of the viability curve) ([6]; HT1376, bladder, 96 h, WST-1): 1.6 µM
- IC50 ([6]; Homo sapiens, HT-1376, 96 h, read-out: Dose B (5-aza-dC concentration at the 50% inhibition of cell viability, IC 50)): 6.3 µM
- IC50 [7, 13]: 5 µM
- Dose A (5-aza-dC concentration at the inflexion point of the viability curve) ([7]; JEG, placenta, WST-1): 2.6 µM
- IC50 [8, 13]: 17.7 µM
- Dose A (5-aza-dC concentration at the inflexion point of the viability curve) ([8]; JAR, placenta, WST-1): 2 µM
- IC50 [9, 13]: 77 µM
- Dose A (5-aza-dC concentration at the inflexion point of the viability curve) ([9]; TC320X6, colon, WST-1): 4 µM
- IC50 ([10]; Homo sapiens, SHP77, 96 h, read-out: Dose B (5-aza-dC concentration at the 50% inhibition of cell viability, IC 50)): 27.5 µM
- Dose A (5-aza-dC concentration at the inflexion point of the viability curve) ([10]; SHP77, lung, 96 h, WST-1): 8 µM
- Effect on the production of pro-EPIL [11]: induced consistently an increase
- Cell lines with an increase in the production of hCGβ type II [12]: 7 out of 10
